Legend:
[1] = target: T1, rNPFF2 (Rattus norvegicus, UniProt Q9EQD2); test: Functional assay (agonist potency, intrinsic activity) at cloned rat NPFF2 receptor; format: cell-based; details: for rNPFF2 IA (intrinsic activity): percent of maximum response elicited by neuropeptide FF, rat NPFF2; for EC50: recombinant rat NPFF2
T1 construct: expressed in transfected cells
Description: (§1) Intrinsic activity of a compound is measured as the percent of maximum response.

[2] = target: T1, rNPFF2; test: Binding affinity at cloned recombinant rat NPFF2 receptor
[3] = target: T2, rNPFF1 (Rattus norvegicus, UniProt Q9EP86); test: Functional assay (agonist potency, intrinsic activity) at cloned rat NPFF1 receptor; format: cell-based; details: for rNPFF1 IA (intrinsic activity): percent of maximum response elicited by neuropeptide FF, rat NPFF1; for EC50: recombinant rat NPFF1
T2 construct: expressed in transfected cells
T2 sequence (Q9EP86 whole entry): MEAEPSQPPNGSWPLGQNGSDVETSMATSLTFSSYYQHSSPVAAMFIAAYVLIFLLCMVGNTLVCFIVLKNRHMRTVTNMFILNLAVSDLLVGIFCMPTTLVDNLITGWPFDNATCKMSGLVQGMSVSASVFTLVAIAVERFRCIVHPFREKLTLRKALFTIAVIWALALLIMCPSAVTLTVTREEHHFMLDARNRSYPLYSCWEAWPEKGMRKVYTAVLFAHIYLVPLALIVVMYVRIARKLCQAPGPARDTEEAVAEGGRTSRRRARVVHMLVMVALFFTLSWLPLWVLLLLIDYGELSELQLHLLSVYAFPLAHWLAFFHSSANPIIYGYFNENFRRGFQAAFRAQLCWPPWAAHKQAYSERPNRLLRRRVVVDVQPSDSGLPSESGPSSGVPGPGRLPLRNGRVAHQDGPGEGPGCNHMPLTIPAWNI
Description: as §1

[4] = target: T2, rNPFF1; test: Binding affinity at cloned recombinant rat NPFF1 receptor

T1 sequence (Q9EQD2 whole entry): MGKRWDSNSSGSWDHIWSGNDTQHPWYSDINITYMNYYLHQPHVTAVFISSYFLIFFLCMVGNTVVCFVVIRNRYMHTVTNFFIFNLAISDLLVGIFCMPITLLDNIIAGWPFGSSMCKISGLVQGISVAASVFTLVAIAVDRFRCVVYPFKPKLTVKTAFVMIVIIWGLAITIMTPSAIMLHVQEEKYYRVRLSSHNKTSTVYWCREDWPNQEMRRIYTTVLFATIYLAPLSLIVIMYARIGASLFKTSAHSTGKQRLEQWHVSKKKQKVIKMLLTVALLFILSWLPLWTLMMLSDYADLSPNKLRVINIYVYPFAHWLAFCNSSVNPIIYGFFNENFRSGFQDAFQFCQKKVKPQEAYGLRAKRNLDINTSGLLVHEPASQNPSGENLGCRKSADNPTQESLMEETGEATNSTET

Row | rNPFF2 IA (intrinsic activity) [1] [% NPFF] | EC50 [1] [nM] | Ki [2] [nM] | rNPFF1 IA (intrinsic activity) [3] | EC50 [3] [nM] | Ki [4] [nM] | Structure (SMILES)
1 | 79 | 758 | 817 | Inactive | > 10000 | 386 | Cc1nc(NC(=N)N)nc2ccc(OCc3ccccc3)cc12 [Compound 1028, N-[6-(benzyloxy)-4-methyl-2-quinazolinyl]guanidine]
2 | 22 | > 10000 | 3480 | Inactive | > 10000 | 311 | Cc1nc(NC(=N)N)nc2ccc(-c3ccccc3)cc12 [Compound 1010, N-(4-methyl-6-phenyl-2-quinazolinyl)guanidine]
3 | 71 | 3160 | 824 | Inactive | > 10000 | 143 | Cc1nc(NC(=N)N)nc2cc3c(cc12)C=CCC3 [Compound 1037, N-(4-methyl-8,9-dihydrobenzo[g]quinazolin-2-yl)guanidine]
4 | 22 | 5620 | 703 | Inactive | – | 312 | CCCCCCCCc1ccc2nc(NC(=N)N)nc(C)c2c1 [Compound 1009, N-(4-methyl-6-octyl-2-quinazolinyl)guanidine]
5 | 82 | 69 | 115 | 28% NPFF | 123 | 24 | CCCCc1ccc2nc(NC(=N)N)cc(C)c2c1 [Compound 5001, N-(6-butyl-4-methyl-2-quinolinyl)guanidine]
6 | 90 | 695 | 273 | Inactive | > 10000 | 18 | CCc1ccc2c(C)nc(NC(=N)N)nc2c1 [Compound 1020, N-(7-ethyl-4-methyl-2-quinazolinyl)guanidine]
7 | 31 | 2540 | 2870 | Inactive | > 10000 | 57 | Cc1nc(NC(=N)N)nc2cc(F)c(F)cc12 [Compound 1019, N-(6,7-difluoro-4-methyl-2-quinazolinyl)guanidine]
8 | 56 | 272 | 1110 | Inactive | > 10000 | 42 | Cc1cc2nc(NC(=N)N)nc(C)c2cc1C [Compound 1015, N-(4,6,7-trimethyl-2-quinazolinyl)guanidine]
9 | 24 | 5620 | 3920 | Inactive | > 10000 | 134 | Cc1ccc2nc(NC(=N)N)nc(C)c2c1 [Compound 1002, N-(4,6-dimethyl-2-quinazolinyl)guanidine]
10 | 47 | 1950 | 3670 | 38% NPFF | 886 | 788 | CCCCCCCc1ccc2nc(NC(=N)N)nc(C)c2c1 [Compound 2006, N-(6-heptyl-4-methyl-2-quinazolinyl)guanidine]
11 | 66 | 2190 | 3220 | Inactive | > 10000 | 794 | CCCCCOc1ccc2nc(NC(=N)N)nc(C)c2c1 [Compound 1031, N-[4-methyl-6-(pentyloxy)-2-quinazolinyl]guanidine]
12 | 17 | 2640 | 619 | Inactive | > 10000 | 44 | Cc1cc(NC(=N)N)nc2cc(F)ccc12 [Compound 4007, N-(7-fluoro-4-methyl-2-quinolinyl)guanidine]

Reference: patent publication US20030139431A1 (priority 2001, published 2003)
